Results on 6 compounds are retold here after US11578013B2, “Nitrification inhibitors” (Lincoln University, priority 2020, dated 2023).

SMILES strings stand for the structures.

The subject of data set [1] is nitrification in the soil. Nature of the data set: Laboratory soil incubation, Templeton sandy loam with synthetic cow urine, nitrate-N. To be noted: for nitrate-N concentration in the soil compared with urine alone or urine+DMSO / reducing the nitrification rate compared with DCD: day 30; for % reduction by NI (nitrate-N): vs urine alone, 30 days; for reducing the nitrification rate compared with DCD: compound at 2 kg/ha vs DCD at 10 kg/ha; for Nitrate-N: 30 days of incubation. On the procedure:
A Templeton sandy loam was used in this experiment. 500 g of soil (dry weight basis) was packed into a pottle. 50 mL of synthetic cow urine with an N concentration of 7 g N/L (comprising about 87% urea-N and 13% glycine-N) was applied to the soil (equivalent to 700 kg N/ha on weight basis, assuming bulk density of 1 g/cm^3 in the top 10 cm of soil). The 700 kg N/ha application was used to simulate the urine-N application rate under a typical dairy cow urine patch in a grazed pasture.
Control treatments also added to soil were: • urine alone (50 mL); • DMSO (equivalent to 0.9 mL/500 g soil)+urine (50 mL) to determine the effect of DMSO on nitrification rate; • water alone (50 mL) (simulating areas of the soil where no urine was deposited).
Pottles were covered with lids with breathing holes to allow for gas exchange during incubation. Pottles were incubated at 12° C. Soil moisture content was maintained at field capacity by adjusting on weight basis twice a week.
Soil samples were collected and were then thoroughly mixed and subsamples were extracted in a potassium chloride solution and analysed for mineral-N. Soil moisture content was also determined. Samples were taken at 30 days after the start of incubation. […]

Data set [2] concerns nitrification. Nature of the data set: Table 1 summary: compounds found to work or not work as nitrification inhibitors, Inhib(%). On the set-up: concentration or dose not given beside the values. The conditions noted are these: test and rate not given. The procedure: The phenotypic screening involved assessing the nitrification inhibition potency of the selected 5000 compounds against a key ammonia oxidizing bacterium responsible for ammonia oxidation in the soil, Nitrosomonas europaea, in 96-well microtiter plates. N. europaea cells were grown in the presence of an ammonium source, and the potential of putative nitrification inhibitors to inhibit the production of nitrite (NO2) was measured relative to untreated cells.
A summary of selected compounds initially found to either work or not work as nitrification inhibitors is detailed in Table 1 below.

The subject of data set [3] is N2O emissions in the soil. Nature of the data set: Field study of nitrous oxide emissions, static gas chamber method, urine-treated pasture soil. The procedure: (§1) This study was conducted on the Lincoln University Research Dairy Farm, and the soil was a Templeton sandy loam with established perennial ryegrass (Lolium perenne) and white clover (Trifolium repens.) pasture. Metal rings (500 mm diameter and 200 mm height) were inserted into the ground. A water trough sitting on top of the metal rings allowed the placement of static chambers sitting on top of the water trough to provide a gas-tight seal to allow N2O gas sampling.
Synthetic urine with a nitrogen concentration of 7 g N/L was applied to the soil plots confined within the metal rings at the equivalent rate of 700 kg N/ha. […] The plots were irrigated with irrigation water in accordance with local dairy farming practice.
(§2) The gas chamber (500 mm diameter and 120 mm height) was constructed of a metal cylinder insulated with 2.5 cm thick polystyrene foam to avoid heating of the atmosphere in the chamber during sampling. During periods of N2O measurement, the edge of the chamber was placed inside the small water trough which was mounted around the top of each metal ring for gas sampling. At each sampling time, the chamber was placed on top of the soil ring for a total of 40 minutes, and 3 samples, 20 minutes apart, were taken using a syringe through a rubber septum on top of the gas chamber. Samples were taken twice weekly. Each sampling was carried out during the middle of the day between 12:00 h to 14:00 h (Di et al., 2007). The N2O concentration in the samples was analysed using a gas chromatograph (SRI8610C with an Electron Capture Detector (ECD) (SRI Instruments, USA) linked to a Gilson 222XL autosampler (Gilson, France)
as §1, with “To determine the effect of treating the soil with 2-ethynyl-5-methoxypyridine on nitrous oxide emissions under field soil conditions, a field study was conducted using the static gas chamber method. This” for “This”
Synthetic urine with a nitrogen concentration of 7 g N/L was applied to the soil plots confined within the metal rings at the equivalent rate of 700 kg N/ha. 196.25 mg or 39.2 mg of 2-ethynyl-5-methoxypyridine were dissolved in 2 mL DMSO, mixed with 1000 mL of water, and then sprayed on to the mini-plots at the rates of 196.25 mg/plot and 39.2 mg/plot, equivalent to 10 kg/ha and 2 kg/ha, respectively. The plots were irrigated with irrigation water in accordance with local dairy farming practice.
as §2, with “France).” for “France)”
To determine the effect of treating the soil with 3-ethynylpyridine 1-oxide on nitrous oxide emissions under field soil conditions, a field study was conducted using the static gas chamber method. […]

For data set [4], the system named is nitrification in the soil. Nature of the data set: Soil column study with static gas chambers (Study 2-14): nitrate-N and N2O emissions. The conditions noted are these: 10 kg/ha sprayed to soil surface, soil column. The procedure:
To determine the effect of treating the soil with 4-Ethynylanisole on nitrification rate and nitrous oxide emissions, soil column studies with static gas chambers were conducted. The experiment was conducted in cylindrical PVC containers (Diameter=186 mm, Height=240 mm). The containers were filled with soil to half of the container's height (120 mm), leaving 120 mm headspace. The soil was Templeton sandy loam collected from Lincoln University Research Dairy Farm. It was screened using a 5 mm sieve and air-dried to the required moisture level and packed to bulk density of 1 g/cm3.
The experiment was conducted under controlled conditions. The temperature of the soil columns were maintained at around 12° C. by using a water bath to control the temperature.
The treatments included Control (Water), Control (animal urine), Control (urine+DMSO), Control (urine+DCD at 10 kg/ha) and urine+4-Ethynylanisole (10 kg/ha) in DMSO. Synthetic cow urine was applied at 700 kg N/ha (comprising about 87% urea-N and 13% glycine-N), and 4-Ethynylanisole was applied at 10 kg/ha. There were two sets of cores for each treatment, one set were fitted with static gas chambers with removable lids for nitrous oxide sampling, and the other set used for soil sampling. The urine was sprayed to the surface of the soil simulating urine deposition by a grazing animal; DMSO, or DCD or 4-Ethynylanisole mixed with DMSO was also sprayed onto the urine treated soils to simulate the treatment of urine patches. Nitrous oxide gas measurements followed these treatments—as is detailed further below.
For the soil columns that were set up for taking soil samples for analysis of mineral nitrogen, the different treatments were mixed with the soil for soil sampling. Soil moisture was adjusted to 100% field capacity (FC) and maintained between 80 and 100% FC over the duration of the experiment.
Nitrous oxide (N2O) gas sampling was conducted twice a week using the standard procedure (Di et al., 2007). Vials were evacuated prior to sampling. Three gas samples were taken with 20 minute intervals between each sampling. Sampling frequency was reduced to once a week when N2O fluxes decreased in intensity.
Soil sampling was conducted on Day 1, 7, 14, 30, and 60. The soil samples were analysed for mineral nitrogen.

The conditions of data set [5]: relative to table salt; cited from earlier work.
Data set [6] has as its system rats. To be noted: female rats; cited from earlier work.

For the compound `C#Cc1ccc(OC)nn1` [3-Ethynyl-6-methoxypyridazine], the melting point – broadly, the temperature of the solid-liquid transition – fell in the range of 51.7 to 53.1 °C. Besides, the “nitrate-N concentration in the soil compared with urine alone or urine+DMSO” value in data set [1] (1 kg/ha) is listed as “lower nitrate-N concentrations”. Also, in data set [1] (2 kg/ha), the “nitrate-N concentration in the soil compared with urine alone or urine+DMSO” value is listed as “lower nitrate-N concentrations”.
As for `C#Cc1cnc(OC)nc1` [5-Ethynyl-2-methoxypyrimidine], the melting point fell in the range of 82.3 to 83.1 °C. Also, the “nitrate-N concentration in the soil compared with urine alone or urine+DMSO” value in data set [1] (1 kg/ha) is “lower nitrate-N concentrations”. Moreover, the “nitrate-N concentration in the soil compared with urine alone or urine+DMSO” value in data set [1] (2 kg/ha) is “lower nitrate-N concentrations”. In addition, in data set [2], the “Inhib(%)” value stood at 100%.
In the case of `C#Cc1ccc[n+]([O-])c1` [3-ethynylpyridine 1-oxide], in data set [3] (sprayed onto urine-treated pasture soil), the “nitrous oxide reductions compared with DCD” value is on record as “greater than that by DCD”. In addition, the N2O emissions in data set [3] (urine + inhibitor at 2 kg/ha) was 3.6 kg N2O—N/ha; in data set [3] (urine + inhibitor at 10 kg/ha) it was 0.79 kg N2O—N/ha. Besides, the results for the “nitrate-N concentration in the soil compared with urine alone or urine+DMSO” value in data set [1] (0.5 kg/ha), in data set [1] (1 kg/ha) and in data set [1] (2 kg/ha) were “lower nitrate-N concentrations”, “lower nitrate-N concentrations” and “significantly lower nitrate-N concentrations”, respectively. Further, the “% reduction by NI (nitrate-N)” value in data set [1] (0.5 kg/ha) is 43%; in data set [1] (1 kg/ha) it was 96%; in data set [1] (2 kg/ha), 97%. For the same compound, the “reducing the nitrification rate compared with DCD” value in data set [1] is on record as “more effective than DCD”. Moreover, the Nitrate-N in data set [1] (urine + inhibitor at 0.5 kg/ha) is 224.4 mg N/kg soil; in data set [1] (urine + inhibitor at 1 kg/ha), 20.8 mg N/kg soil; in data set [1] (urine + inhibitor at 2 kg/ha), 8.2 mg N/kg soil. In data set [2], the “Inhib(%)” value stood at 100%.
As to `N#CNC(=N)N` [DCD, dicyandiamide], the “N2O—N emissions lower than urine alone control” value in data set [4] came out at 43.4%. For the same compound, the toxicity rating in data set [5] is listed as 10 times less toxic than table salt. The “oral LD50” value in data set [6] is “greater than 30,000 mg kg^−1 body weight”.
Compound `C#Cc1ncc(OC)cn1` [2-Ethynyl-5-methoxypyrimidine] came in with a melting point of 56.2 to 57.2 °C. The “nitrate-N concentration in the soil compared with urine alone or urine+DMSO” value in data set [1] (1 kg/ha) was “lower nitrate-N concentrations”. In data set [1] (2 kg/ha), the “nitrate-N concentration in the soil compared with urine alone or urine+DMSO” value is “significantly lower nitrate-N concentrations”. Further, in data set [1], the “reducing the nitrification rate compared with DCD” value is “more effective than DCD”.
As to `C#Cc1cnc(OC)cn1` [2-Ethynyl-5-methoxypyrazine], the melting point was 41.3 to 42.7 °C. For the same compound, in data set [1] (1 kg/ha), the “nitrate-N concentration in the soil compared with urine alone or urine+DMSO” value was “lower nitrate-N concentrations”. In addition, the “nitrate-N concentration in the soil compared with urine alone or urine+DMSO” value in data set [1] (2 kg/ha) was “lower nitrate-N concentrations”.
